Patent US20140097078A1, “DISTILLATION DEVICE AND METHOD” (GE HEALTHCARE LIMITED, priority 2011, published 2014)
Where two headings read alike, the source gives them in different places. Blank lines part the entries; values can stand above or below the substance they belong to.

Experiments:
[1] = Radiolysis / stability of [18F]FET-βAG-TOCA: percentage of parent compound over time; format: physicochemical; conditions: for Percentage of parent compound at time: T = 0 / Percentage of parent compound at time: T = 120 m / Percentage of parent compound at time: T = 240 m: ~10 ml in 3-6% EtOH/PBS
Experimental: The use of higher levels of fluorine-18 (0.5-1 Curie) was also investigated. […] Although radiolysis occurred during isolation, once the product had been fully formulated (6% EtOH/PBS (10 mL)) it appeared to be stable up to 6 h. During this experiment, the EOS yield after aseptic filtration was 13%. The starting fluorine-18 was then reduced to see enough material could be isolated for a clinical dose, whilst at the same time reducing radiolysis.
Additional experiments attempted to add ascorbic acid to the existing HPLC eluent (0.5% w/v), add a sodium ascorbate solution to the HPLC fraction collection vial (5 mg/mL (5 mL)) and elute the tC18 cartridge with a sodium ascorbate/EtOH solution (5 mg/mL/1% EtOH). Unfortunately, due to addition of ascorbic acid to the HPLC eluent, the purification became inefficient, showing very little elution of the stable reagents. […] The isolated yield was also unaffected and gave EOS of 14%. To avoid this problem, ethanol was investigated as a replacement for the ascorbic acid. After some optimisation, a suitable solvent system was found (25% MeCN (0.1% HCl), 75% H2O (0.1% HCl)+0.8% w/v EtOH) which could be used to purify the material at the same time as reducing radiolysis (97% parent T=0 min (n=1)) (Entry 5, Table 2).

[2] = Entry 1, starting activity 1 Curie
[3] = Entry 2, starting activity 600 mCi
[4] = Entry 3, starting activity 500 mCi
[5] = Entry 4, starting activity 500 mCi
[6] = Entry 5, starting activity 500 mCi, EtOH-containing HPLC eluent

Substance: [^18F]FET-βAG-TOCA
time for which stable once fully formulated ([1]; 1 Curie run, formulated in 6% EtOH/PBS (10 mL)): ≥ 6 h
Percentage of parent compound at time: T = 0 [1, 2]: 60%
Percentage of parent compound at time: T = 120 m [1, 2]: 60%
Percentage of parent compound at time: T = 240 m [1, 2]: 60%
Percentage of parent compound at time: T = 0 [1, 3]: 91%
Percentage of parent compound at time: T = 120 m [1, 3]: 91%
Percentage of parent compound at time: T = 240 m [1, 3]: 91%
Percentage of parent compound at time: T = 0 [1, 4]: 96%
Percentage of parent compound at time: T = 120 m [1, 4]: 96%
Percentage of parent compound at time: T = 240 m [1, 4]: 96%
Percentage of parent compound at time: T = 0 [1, 5]: 97%
Percentage of parent compound at time: T = 120 m [1, 5]: 97%
Percentage of parent compound at time: T = 240 m [1, 5]: 97%
Percentage of parent compound at time: T = 0 [1, 6]: 97%
Percentage of parent compound at time: T = 240 m [1, 6]: 97%
parent at T=0 min ([1]; HPLC solvent 25% MeCN (0.1% HCl), 75% H2O (0.1% HCl)+0.8% w/v EtOH, n=1, Entry 5, Table 2): 97%
parent at T=0 min ([1]; ascorbic acid in HPLC eluent (0.5% w/v), sodium ascorbate in collection vial and tC18 eluent): 97%
intact parent ([1]; starting with 0.5 Curies of fluorine-18): 91%
parent at T=0 ([1]; starting with 1 Curie of fluorine-18, radiolysis during HPLC purification and tC18 formulation): 62%

time for which stable (in the presence of BPDS): ≤ 20 min
time for which stable (in the presence of CuSO4): > 240 min
time for which stable (in the presence of Na-ascorbate): ≤ 20 min
Substance: βAG-TOCA
